The supplement of paper PMC10307832

Experiments:
Assay in all cases: relative viability (nuclei count vs DMSO), 5 days (fraction); higher = more cells survive
BI-2536 + Linsitinib = compound: CC[C@@H]1C(=O)N(C)c2cnc(Nc3ccc(C(=O)NC4CCN(C)CC4)cc3OC)nc2N1C1CCCC1 [BI-2536] + C[C@]1(O)C[C@@H](c2nc(-c3ccc4ccc(-c5ccccc5)nc4c3)c3c(N)nccn32)C1 [Linsitinib] (partner 1 µM)
Procedure, shortened: (§1)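 Nuclei were stained with Hoechst during a one-step fixation (final 0.05% Triton X-100, 1% formaldehyde, 1 ug/ml Hoechst) carried out 5 days after dosing, then counted on 4× images. The cells, lung cancer lines in 1536-well plates, had been dosed by pin tool the day after seeding with one drug alone or a fixed anchor-drug dose plus five library-drug doses (not always all listed) in √10 steps. Relative viability is the nuclei count in treated wells divided by that in vehicle wells, and each value is the median of duplicate plates.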

BI-2536 + Crizotinib = compound: CC[C@@H]1C(=O)N(C)c2cnc(Nc3ccc(C(=O)NC4CCN(C)CC4)cc3OC)nc2N1C1CCCC1 [BI-2536] + C[C@@H](Oc1cc(-c2cnn(C3CCNCC3)c2)cnc1N)c1c(Cl)ccc(F)c1Cl [Crizotinib] (partner 1 µM)
Procedure, shortened: as §1

[1] = compound: CC1CC(=O)N(C2=CN=C(N=C2N1C3CCCC3)NC4=C(C=C(C=C4)C(=O)NC5CCN(CC5)C)OC)C [NPK76-II-72-1] + CC1(C)CCC(c2ccc(Cl)cc2)=C(CN2CCN(c3ccc(C(=O)NS(=O)(=O)c4ccc(N[C@H](CCN5CCOCC5)CSc5ccccc5)c(S(=O)(=O)C(F)(F)F)c4)cc3)CC2)C1 [Navitoclax] (partner 0.5 µM)
Procedure, shortened: as §1

[2] = compound: CC1CC(=O)N(C2=CN=C(N=C2N1C3CCCC3)NC4=C(C=C(C=C4)C(=O)NC5CCN(CC5)C)OC)C [NPK76-II-72-1] + CC(=O)c1c(C)c2cnc(Nc3ccc(N4CCNCC4)cn3)nc2n(C2CCCC2)c1=O [Palbociclib] (partner 0.5 µM)
Procedure, shortened: as §1

Cell Line | relative viability (BI-2536 + Linsitinib; first compound 0.01 µM) | relative viability (BI-2536 + Linsitinib; first compound 0.03162 µM) | relative viability (BI-2536 + Linsitinib; first compound 0.1 µM) | relative viability (BI-2536 + Linsitinib; first compound 0.3162 µM) | relative viability (BI-2536 + Linsitinib; first compound 1 µM) | relative viability (BI-2536 + Crizotinib; first compound 0.01 µM) | relative viability (BI-2536 + Crizotinib; first compound 0.03162 µM) | relative viability (BI-2536 + Crizotinib; first compound 0.1 µM) | relative viability (BI-2536 + Crizotinib; first compound 0.3162 µM) | relative viability (BI-2536 + Crizotinib; first compound 1 µM) | relative viability ([1]; first compound 0.01 µM) | relative viability ([1]; first compound 0.03162 µM) | relative viability ([1]; first compound 0.1 µM) | relative viability ([1]; first compound 0.3162 µM) | relative viability ([1]; first compound 1 µM) | relative viability ([2]; first compound 0.01 µM) | relative viability ([2]; first compound 0.03162 µM) | relative viability ([2]; first compound 0.1 µM) | relative viability ([2]; first compound 0.3162 µM) | relative viability ([2]; first compound 1 µM)
201T | 1.07 | 0.866 | 1.07 | 1 | 0.345 | 1.02 | 1.03 | 1 | 0.66 | 0.358 | 1.18 | 1.18 | 1.23 | 1.2 | 1.19 | 0.379 | 0.385 | 0.348 | 0.356 | 0.364
A549 | 0.582 | 0.536 | 0.63 | 0.294 | 0.0483 | 0.727 | 0.565 | 0.119 | 0.0589 | 0.0294 | 1.17 | 1.29 | 1.22 | 1.12 | 1.15 | – | – | – | – | –
A-427 | 1.15 | 1.23 | 1.08 | 1.13 | 0.304 | 0.927 | 0.678 | 0.535 | 0.119 | 0.0896 | 1.01 | 0.941 | 0.92 | 1.05 | 0.96 | 0.494 | 0.537 | 0.529 | 0.532 | 0.565
ABC-1 | 0.816 | 0.838 | 0.895 | 0.292 | 0.253 | 1.27 | 0.601 | 0.353 | 0.205 | 0.214 | – | – | – | – | – | 0.522 | 0.646 | 0.791 | 0.511 | 0.672
BEN | 0.876 | 0.874 | 0.83 | 0.658 | 0.222 | 0.849 | 0.6 | 0.556 | 0.243 | 0.216 | 0.0828 | 0.0731 | 0.0563 | 0.0637 | 0.063 | 0.432 | 0.478 | 0.45 | 0.509 | 0.48
CAL-12T | 0.913 | 0.808 | 0.852 | 0.165 | 0.286 | 0.532 | 0.295 | 0.409 | 0.128 | 0.155 | 1.15 | 1.32 | 1.22 | 1.02 | 1.18 | 0.334 | 0.498 | 0.517 | 0.404 | 0.491
COR-L23 | 0.961 | 1.06 | 0.605 | 0.104 | 0.0946 | 0.684 | 0.566 | 0.226 | 0.11 | 0.0912 | 0.823 | 0.969 | 0.92 | 0.995 | 1.03 | 0.264 | 0.304 | 0.314 | 0.29 | 0.342
COR-L 105 | 0.829 | 0.915 | 0.946 | 0.277 | 0.312 | 0.798 | 0.611 | 0.394 | 0.288 | 0.264 | 0.801 | 0.742 | 0.799 | 0.717 | 0.761 | 0.389 | 0.417 | 0.379 | 0.439 | 0.469
Calu-6 | 0.923 | 1.02 | 0.816 | 0.0855 | 0.0964 | 0.713 | 0.4 | 0.273 | 0.113 | 0.102 | 0.879 | 0.942 | 0.894 | 0.809 | 0.889 | – | – | – | – | –
ChaGo-K-1 | – | – | – | – | – | 1.05 | 0.693 | 0.704 | 0.299 | 0.303 | 0.937 | 0.955 | 1.09 | 0.944 | 0.64 | 0.871 | 0.891 | 0.892 | 0.925 | 0.945
EBC-1 | 0.966 | 0.797 | 0.863 | 0.172 | 0.154 | 0.194 | 0.14 | 0.175 | 0.141 | 0.145 | 0.35 | 0.36 | 0.376 | 0.417 | 0.485 | – | – | – | – | –
EKVX | 1.1 | 0.96 | 0.818 | 0.368 | 0.169 | 1.01 | 0.745 | 1.07 | 0.217 | 0.147 | 0.909 | 1.03 | 0.865 | 0.648 | 1.13 | 0.334 | 0.401 | 0.368 | – | 0.464
EMC-BAC-2 | 0.852 | 0.866 | 0.872 | 0.444 | 0.236 | 0.882 | 0.791 | 0.701 | 0.174 | 0.145 | 1.13 | 1.17 | 1.1 | 1.17 | 1.19 | 0.54 | 0.561 | 0.476 | 0.516 | 0.538
EPLC-272H | 1.12 | 1.15 | – | 0.143 | 0.0967 | 0.901 | 0.577 | – | 0.0723 | 0.093 | 1.06 | 0.97 | 1.12 | 1.09 | 1.35 | 0.332 | 0.339 | 0.335 | 0.329 | 0.369
